{"source": "paper PMC10812672", "about": "“Short Antimicrobial Peptide Derived from the Venom Gland Transcriptome of Pamphobeteus verdolaga Increases Gentamicin Susceptibility of Multidrug-Resistant Klebsiella pneumoniae” (Antibiotics, 2023)", "assay_type_in_all_cases": "cell-based, Staphylococcus aureus", "key": {"[1]": {"tested_on": "S. aureus ATCC® 29213", "description": "The nine AMPs identified in the initial screening were evaluated at concentrations between 1.56–200 µM, against E. coli ATCC® 25922, S. aureus ATCC® 29213, E. faecalis ATCC® 49532, P. aeruginosa ATCC® 9027, and K. pneumoniae ATCC® BAA-1705 (Supplementary Figures S2–S6). […] Only PvAMP66 and PvAMP172 reached the MBC for S. aureus at 50 µM and 100 µM, respectively (Table 2).\n(§1) The evaluation of the antimicrobial activity of the peptides was conducted using the CLSI’s broth microdilution method for bacterial susceptibility testing. For the screening phase, peptides were evaluated at a single 30 μM concentration, in triplicate and in three independent assays, against the E. coli ATCC® 8739, E. coli ATCC® 25922, S. aureus ATCC® 6538, or S. aureus ATCC® 29213 reference USP and CLSI strains. For the determination of MIC, MBC, or IC50, peptides or antibiotics were evaluated in concentrations between 1.56–200 µM. These evaluations were conducted in triplicate and in three independent assays, against the E. coli ATCC® 25922, S. aureus ATCC® 29213, E. faecalis ATCC® 49532, P. aeruginosa ATCC® 9027, and K. pneumoniae ATCC® BAA-1705, or the clinically isolated MDR strain. In detail, 1 mL of a glycerol stock solution of the ATCC® or clinically isolated bacterial strain was added to 9 mL of Mueller-Hinton Broth and incubated for 18 h, 180 rpm and 37 °C (Incubator 1000, Heidolph Instruments, Schwabach, Germany). After the incubation, 1 mL of the previous solution was transferred to a new recipient containing 9 mL of fresh Mueller-Hinton broth and incubated for 4 h, 180 rpm and 37 °C (Incubator 1000, Heidolph Instruments, Schwabach, Germany). During the second incubation, the peptides or the antibiotics were dissolved in PBS pH 7.20 in concentrations between 19.53–2500 µM (MC5 Micro Balance, Sartorius AG, Göttingen, Germany). An amount of 10 µL of either peptide or antibiotic was dispensed in triplicate in 96-well flat bottom culture plates, along with 10 µL of PBS (Negative activity control), BTM-P1 (Positive activity control), or 10 µL of Mueller-Hinton broth (Blank); then, 110 µL of Mueller-Hinton broth was poured in all wells. Following this, the bacteria were suspended in Mueller-Hinton broth up to a concentration of approximately 1.50 × 10^8 CFU/mL, as measured by optical density at 600 nm between 0.06 to 0.11 (0.5 McFarland standard), in a Multiskan SkyHigh spectrophotometer (ThermoFisher Scientific, Waltham, MA, USA). Amounts of 5 µL of the 1.50 × 10^8 CFU/mL suspension were added to each well (except for the blank) for a final well concentration of approximately 6 × 10^6 CFU/mL. The plate was incubated for 24 h at 37 °C (BE 500, Memmert GmbH, Büchenbach, Germany) and optical density was measured at 600 nm in a Multiskan SkyHigh spectrophotometer (ThermoFisher Scientific, Waltham, MI, USA). Following the measurement of optical density, plates were visually inspected to determine the MIC. Subsequently, 100 µL of the concentration associated to the MIC and 100 µL of the next higher concentration were added to Petri dishes containing Mueller-Hinton Agar. The dishes were then incubated for 24 h at 37 °C (BE 500, Memmert GmbH, Büchenbach, Germany). After incubation, the Petri dishes were visually inspected, and the MBC was determined in the absence of growth. IC50 values were interpolated from regressions with correlation values above 0.70. Growth inhibition percentages were calculated as follows: Growth inhibition %=1−AbsPEPTIDE or ANTIBIOTIC−Median AbsBLANK/Median AbsPBS−Median AbsBLANK×100"}, "[2]": {"tested_on": "S. aureus ATCC® 6538", "settings": "CLSI broth microdilution, Mueller-Hinton broth, peptide 30 µM, ~6 × 10^6 CFU/mL, 24 h 37 °C, OD600; triplicate, three independent assays; NA = no activity", "description": "(§2) Activity screening was conducted using the broth microdilution method at a fixed peptide concentration of 30 µM against E. coli ATCC® 8739 and 25922, as well as S. aureus ATCC® 6538 and 29213. The bacterial density used for screening was approximately 6 × 10^6 CFU/mL [30]. Peptide activity measurements were conducted in terms of the growth inhibition percentage. No dose-response curves were generated during the screening phase as a resource optimization strategy in the initial activity evaluation. […] For S. aureus ATCC® 6538 and S. aureus ATCC® 29213, growth inhibition ranged from 0% to 140% and 0% to 98%, respectively (Table 1).\nas §1"}, "[3]": {"tested_on": "S. aureus ATCC® 29213", "settings": "CLSI broth microdilution, Mueller-Hinton broth, peptide 30 µM, ~6 × 10^6 CFU/mL, 24 h 37 °C, OD600; triplicate, three independent assays; NA = no activity", "description": "as §2, §1"}}, "note": "Ends that are not written are not given here.", "data": [{"substance": "WKKIKKFF-NH2 [PvAMP66]", "values": [{"measurement": "MIC", "setting": "[1]; 1.56–200 µM, 24 h 37 °C, visual inspection, triplicate, three independent assays", "result": 25, "unit": "µM"}, {"measurement": "MBC", "setting": "[1]; plating on Mueller-Hinton agar, absence of growth", "result": 50, "unit": "µM"}, {"measurement": "S. aureus ATCC® 6538 (Inhibition %)", "setting": "[2]", "result": "139.72 ± 1.90", "unit": "%"}, {"measurement": "S. aureus ATCC® 29213 (Inhibition %)", "setting": "[3]", "result": "98.25 ± 0.39", "unit": "%"}]}]}
